Article PMC6315395, “New Lipophenol Antioxidants Reduce Oxidative Damage in Retina Pigment Epithelial Cells” (Antioxidants, 2018)
Values belong to the compound of their own block, whether it stands above or below them.

What was measured:
[1] = system: ARPE-19 cells; experiment: Cytotoxicity of lipophenols (MTT cell viability, 24 h); format: cell-based, human; details: for Toxicity in ARPE-19 cells (in words): tested 0–160 µM
Experimental: (§1) Cell viability was determined by MTT colorimetric assay. The cells were incubated for 2 h with MTT reagent (0.5 mg/mL). During this incubation time, dehydrogenases of the living cells reduce the MTT to insoluble purple formazan. The absorbance at 570 nm and 655 nm of individual wells of the cell was measured using a microplate reader (BioRad 550, USA). […] The percentage of the viable cells was calculated as [(OD570 sample − OD655 sample)/(OD570 control − OD655 control)] × 100%.
(§2) ARPE-19 cells were plated into 96-well plates (4 × 10^4 cells/well) and cultured for 24 h to reach confluence before lipophenol treatment. The cell cultures were treated with serum free medium containing the lipophenols at different concentrations (0–160 µM) for 24 h. Control cells were incubated with DMSO (0.2%). The viability of the cells was determined using MTT colorimetric assay as described above and expressed in percentage of viable cells normalized with control conditions in the absence of lipophenols. When a dose-dependent toxicity was observed, CC50 was calculated.

[2] = as above; format: cell-based, human; details: human, ARPE-19 cells; for CC50 at 24 h: serum free medium, 0–160 µM, MTT, mean ± SD, n ≥ 3, read-out: ARPE-19 CC50 (concentration of lipophenol killing 50% of ARPE-19 cells)
Experimental: as §1, §2

[3] = system: ARPE-19 cells; experiment: Protection against ROS production (DCFDA probe, H2O2 stress); format: cell-based, human; details: for IC50: H2O2 600 µM for 4 h, DCFDA, mean ± SD, n ≥ 3, read-out: ROS production IC50 (concentration needed to inhibit 50% of the ROS induced by H2O2)
Experimental: ROS activity was measured in ARPE-19 cells with dichlorofluorescein diacetate (DCFDA) reagent. DCFDA is deacetylated by cellular esterases to dichlorofluorescein (DCFH), which can then be oxidized by ROS into the fluorophore 2′,7′–dichlorofluorescein (DCF). ARPE-19 cells were plated into black, optically clear bottom 96-well plates (4 × 10^4 cells/well) and cultured for 24 h to reach confluence before the drug treatment. The cell cultures were incubated with 2 µM of DCFDA for 45 min in DMEM/F12 medium without phenol red + 1% FBS. The cells were rinsed and incubated with the medium containing lipophenols at different concentrations (0–80 µM) for 1 h. Then, H2O2 was added to a final concentration of 600 µM for 4 h, followed by the measurement of DCF production by fluorescence spectroscopy with excitation wavelength at 485 nm and emission wavelength at 535 nm. […] Control cells were incubated with DMSO (0.2%) ± DCFDA ± H2O2. The percentage of ROS produced was calculated as [(fluorescence of sample)/(fluorescence of control)] × 100%. The results are expressed in percentage of ROS produced normalized with control conditions in the absence of lipophenol and presence of stressor. When a dose-dependent inhibition was observed, IC50 was calculated.

[4] = system: RPE cells; details: 100 µM; cited from earlier work
[5] = system: Balb-c male mice photoreceptors; parameters: method as in PMID 29541735; details: cited from earlier work
[6] = system: ARPE-19 cells; experiment: Protection against photo-oxidized A2E toxicity (MTT cell viability); format: cell-based, human; details: for IC50: 1 h pre-treatment, A2E 20 µM 6 h, blue light 30 min, mean ± SD, n ≥ 3, read-out: Protection against A2E toxicity IC50 (concentration needed to inhibit 50% of the toxicity induced by photo-oxidized A2E); for Decrease of the toxic effect of A2E: at 8 µM; for Cells protected from photo-oxidized A2E: at higher concentrations; for Maximum cell viability under photo-oxidized A2E: between 20 and 40 µM; for Potency against photo-oxidized A2E relative to natural quercetin: ratio of IC50
Experimental: as §1
ARPE-19 cells were plated into 96-well plates (4 × 10^4 cells/well) and cultured for 24 h to reach confluence before lipophenol treatment. The cell cultures were treated with serum free DMEM/F12 medium without phenol red containing lipophenols at different concentrations (0–80 µM) for 1 h. Then A2E was added to a final concentration of 20 µM for 6 h before rinsing with medium. Control cells were incubated with DMSO (0.2%) with or without A2E. The cells were exposed to intense blue light (4600 LUX) for 30 min to induce phototoxicity of A2E and incubated at 37 °C. The cell viability was determined 16–20 h later using a MTT colorimetric assay. Results are expressed in percentage of viable cells normalized with control conditions in the absence of lipophenols and stressor. When a dose-dependent efficiency was observed, IC50 was calculated.

[7] = system: porcine primary RPE cells; parameters: method as in PMID 27992460; details: at 20 µM; cited from earlier work
[8] = system: Abca4 −/− Rdh8 −/− mice; parameters: method as in PMID 27992460; details: treated orally for three months; cited from earlier work
[9] = system: ARPE-19 cells; parameters: method as in PMID 27659166; details: 60 µM, cells treated twice for 3 days before A2E stress; cited from earlier work
[10] = Homo sapiens, ARPE-19, 1 h pre-incubation

- IC50 [3, 10]: 6.82 ± 0.73 µM
SMILES: O=c1c(O)c(-c2ccc(O)c(O)c2)oc2cc(O)cc(O)c12 [Quercetin, quercetin, reference compound]
- Toxicity in ARPE-19 cells (in words) ([1]; 24 h): moderate toxicity
- CC50 at 24 h [2]: 111 ± 4.92 µM
- IC50 ([6]; Homo sapiens, ARPE-19): 23.9 µM
- viability at 40 µM ([6]; Homo sapiens, ARPE-19, at 40 µM, read-out: Maximum cell viability under photo-oxidized A2E): 78%

- IC50 [3, 10]: > 80 µM
SMILES: CCCCC/C=C\C/C=C\CCCCCCCC(=O)Oc1cc(O)cc(O)c1 [Phloro-LA (3), Phloroglucinol-LA]
- CC50 at 24 h [2]: > 160 µM
- ROS scavenging potency relative to natural homologue (phloroglucinol) ([3]; ratio of ROS IC50): nine times less potent

- IC50 [3, 10]: 10.6 ± 4.41 µM
SMILES: CCCCC/C=C\C/C=C\CCCCCCCC(=O)O[C@H]1Cc2c(O)cc(O)cc2O[C@@H]1c1ccc(O)c(O)c1 [Cat-3-LA (9), catechin-3-LA]
- Concentration from which cytotoxicity on ARPE-19 starts ([1]; 24 h, MTT): ≥ 80 µM
- CC50 at 24 h [2]: 149 ± 6.61 µM

- IC50 [3, 10]: 9.44 ± 2.37 µM
- melting point: 235.8 °C
SMILES: CC/C=C\C/C=C\C/C=C\CCCCCCCC(=O)Oc1cc(O)c2c(=O)c(O)c(-c3ccc(O)c(O)c3)oc2c1 [Quer-7-ALA (18), quercetin-7-ALA]
- CC50 at 24 h [2]: > 160 µM
- viability at 24 h ([2]; up to 160 µM, Figure 8, 100% = non-treated control cells): 128%
- IC50 ([6]; Homo sapiens, ARPE-19): 8.45 µM
- Decrease of the toxic effect of A2E [6]: 50%
- Cells protected from photo-oxidized A2E [6]: up to 90%
- Maximum cell viability under photo-oxidized A2E [6]: 88–89%
- Potency against photo-oxidized A2E relative to natural quercetin [6]: three times more potent
- ROS scavenging potency relative to analogue 3-ALA ([3]; ratio of ROS IC50): 6 times

- IC50 ([3]; 1 h pre-incubation): 59.4 ± 18.8 µM
- IC50 [3, 10]: ~60 µM
SMILES: CC/C=C\C/C=C\C/C=C\C/C=C\C/C=C\C/C=C\CCC(=O)Oc1c(-c2ccc(O)c(O)c2)oc2cc(O)cc(O)c2c1=O [Quer-3-DHA (15)]
- Toxicity in ARPE-19 cells (in words) ([1]; 24 h): slight toxicity
- CC50 at 24 h [2]: 134 ± 8.09 µM

- IC50 [3, 10]: 10.2 ± 3.44 µM
SMILES: Oc1cc(O)cc(O)c1 [Phloroglucinol, phloroglucinol, reference compound]
- CC50 at 24 h [2]: > 160 µM

More lines, now with the values behind:

SMILES: Oc1cc(O)c2c(c1)O[C@H](c1ccc(O)c(O)c1)[C@@H](O)C2 [(+)-catechin, reference compound]
- Toxicity in ARPE-19 cells (in words) ([1]; 24 h): no apparent toxicity
- CC50 at 24 h [2]: > 160 µM
- IC50 [3, 10]: 5.93 ± 0.06 µM

SMILES: O=c1c(O[C@@H]2OC[C@H](O)[C@H](O)[C@H]2O)c(-c2ccc(O)c(O)c2)oc2cc(O)cc(O)c12 [3-quercetin glycoside, Quercetin-3-O-α-L-arabinopyranoside]
- Cell viability of RPE cells [4]: ~ 90%
- Protection of photoreceptors against blue light damages (in words) [5]: protect

SMILES: CC(/C=C/C=C(C)/C=C/C(=O)O)=C\C=C\C=C(C)\C=C\C=C(C)\C=C\C(=O)O (stereo in doubt) [Norbixin]
- Protection against A2E illuminated [7]: 90–100%
- Effect on A2E in mice (in words) [8]: able to reduce A2E

SMILES: CCCCC/C=C\C/C=C\CCCCCCCC(=O)Oc1c(-c2ccc(O)c(O)c2)oc2cc(O)cc(O)c2c1=O [Quer-3-LA (13), quercetin-3-LA]
- Cell survival in cytotoxicity assay ([1]; at 80 µM, Figure 8, 100% = non-treated control cells): 150%
- Toxicity in ARPE-19 cells (in words) ([1]; 24 h): no toxicity was observed up to 160 µM
- CC50 at 24 h [2]: > 160 µM
- IC50 ([6]; Homo sapiens, ARPE-19): 8.24 µM
- Decrease of the toxic effect of A2E [6]: 50%
- Cells protected from photo-oxidized A2E [6]: up to 90%
- Maximum cell viability under photo-oxidized A2E [6]: 88–89%
- Potency against photo-oxidized A2E relative to natural quercetin [6]: three times more potent
- IC50 ([3]; 1 h pre-incubation): 52.2 ± 10.8 µM
- IC50 [3, 10]: ~60 µM

SMILES: Oc1cc(O)cc(/C=C/c2ccc(O)c(O)c2)c1 [piceatannol]
- Protection against photo-oxidized A2E (in words, compared with 88–89% cell viability) [9]: Same level of protection

SMILES: Oc1ccc(C=Cc2cc(O)cc(O)c2)cc1 [Resveratrol, 3,4′,5-trihydroxystilbene, reference compound]
- CC50 at 24 h [2]: > 160 µM
- Protection against photo-oxidized A2E (in words, compared with 88–89% cell viability) [9]: Same level of protection
- IC50 [3, 10]: 7.4 ± 0.51 µM

SMILES: CC/C=C\C/C=C\C/C=C\CCCCCCCC(=O)Oc1c(-c2ccc(O)c(O)c2)oc2cc(O)cc(O)c2c1=O [Quer-3-ALA (14), quercetin-3-ALA]
- CC50 at 24 h [2]: 69.4 ± 3.46 µM
- IC50 ([3]; 1 h pre-incubation): 61.7 ± 7.43 µM
- IC50 [3, 10]: ~60 µM
- melting point: 180 °C

SMILES: CCCCC/C=C\C/C=C\CCCCCCCC(=O)Oc1ccc(/C=C/c2cc(O)cc(O)c2)cc1 [Resv-4′-LA (8), resveratrol-4′-LA]
- CC50 at 24 h [2]: > 160 µM
- IC50 [3, 10]: > 80 µM
- ROS scavenged ([3]; at 80 µM, Figure S1): 40%
